Here are results for one substance from patent US8150136B2, “Image based quantitation of molecular translocation” (Amnis Corporation, priority 2005, dated 2012).

The assay relates to NF-κB nuclear translocation in THP-1 cells. Put plainly: LPS-induced nuclear translocation of NF-κB in THP-1 cells, multispectral imaging flow cytometry (ImageStream), NF-κB/7-AAD Similarity. The format is cell-based, human. On the procedure: Untreated (a) and LPS treated (b) THP-1 cells were prepared as described in FIG. 4 and imaged in flow using the ImageStream 100 platform. […] Each gated population has an associated image gallery that can be visually inspected. The image galleries here display the NF-κB image adjacent to a composite image (green NF-κB/red 7-ADD) for each object within a given population.
In order to quantitate the extent of NF-κB nuclear translocation in A-549 cells treated with TNF-α/IL-β, the degree of pixel intensity between the NF-κB and nuclear images of cell within a masked region of interest was analyzed. The NF-κB image of a cell with a high degree of translocation will look qualitatively similar to the nuclear image of that cell, resulting in a high degree of correlation between the two images. In contrast, the NF-κB image of a cell without any translocation will have little signal in the nuclear space, resulting in an inverse correlation with the nuclear image. […] Two features were calculated, the correlation coefficient (ρ) and, in this case, similarity is calculated as a logarithmic transformation of ρ, which features are represented by the following formula, respectively: ρ(X,Y)=Cov(X,Y)/(σX σY) Similarity=ln(1+ρ)/(1−ρ) As set forth herein, ρ measures the degree to which the spatial distribution of intensities over two separate images is correlated, with a range from −1 (inverse correlation) to +1 (complete correlation). Here, similarity values range from −∞ to +∞, allowing standard statistical comparisons (means and standard deviations) between groups to be made. Histogram overlays of NF-κB/7-AAD correlation and similarity allows the differentiation of untreated (green) A-549 cells from TNF-α/IL-1β treated (red) A-549 cells. As described herein, the fidelity of these classifiers can be validated by inspection of the image galleries of the cells. Mask Determination
By way of background and […], NF-κB resides predominantly in the cytoplasm in resting cells. Activating treatments (e.g., IL-1β/TNF-α or LPS) induce NF-κB translocation into the nucleus in responsive cell types. Thus, the ratio of nuclear to cytoplasmic NF-κB increases with LPS treatment. Similar to the A-549 cells, NF-κB is translocated from the cytoplasm to the nucleus when the non-adherent human monocyte cell line, THP-1, is exposed to lipopolysaccharide (LPS). […] A nuclear and NF-κB pixel signal correlation analysis CCF was used to quantitate the difference between untranslocated NF-κB and NF-κB translocated to the cell nucleus. The CCF distinguished location-specific (nuclear and cytoplasmic) quantitation of NF-κB to distinguish LPS-treated from untreated THP-1 cells. Thus, the methods of the present disclosure may also be used with non-adherent cells and cell lines.
Human monocyte cell line THP-1, obtained from ATCC (Rockville, Md.), were maintained in RPMI 1640 (Gibco, Grand Island, N.Y.) containing 5% fetal bovine serum, 1 mM sodium pyruvate (Mediatech, Herndon, Va.), 100 μM nonessential amino acids, 100 U/ml penicillin, 100 μg/ml streptomycin, and 2 mM L-glutamine (BioWhittaker, Walkersville, Md.) in 5% CO2 atmosphere at 37° C. The density of exponentially growing cells was less than 3×10^5 cells per ml at the time of all treatments. To induce NF-κB translocation into the nucleus from the cytoplasm, cells were treated for 1 hr with LPS.
The following is the experimental procedure for LPS-induced Nuclear Translocation of NF-κB in THP-1 cells. […]
In general terms: A flow cytometer gives signals particle by particle.

Turning to Lipopolysaccharide [LPS], for the setting “LPS treated THP-1 cells, 'High Similarity' (translocated) gated population, untreated: 2.98 +/−0.35”, the “NF-κB/7-AAD Similarity value (median similarity value) of translocated cells” value is reported as 3.35 +/−0.48. The “NF-κB/7-AAD Similarity value of untranslocated cells” value (LPS treated THP-1 cells, 'Low Similarity' (untranslocated) gated population, untreated: −1.36 +/−0.84) was −0.76 +/−0.64. Moreover, the “percentage of Medium Similarity cells” value (LPS treated THP-1 cells, diffuse NF-κB staining pattern, untreated 3.6%) is given as 27.6%. Moreover, the “percentage of NF-κB-translocated cells” value (LPS treated THP-1 cells, untreated 0.71%) amounted to 44.6%. The “nuclear localization of NF-κB by CCF, treated versus untreated cells” value (THP-1 cells, LPS-treated vs untreated) is listed as “a quantifiable difference in the nuclear localization NF-κB is demonstrated”.
